In the first test the test system is indomethacin-induced acute gastric ulcers. Description: Protection studies of gastric ulceration in vivo (indomethacin-induced acute gastric ulcer, ulcer index). On the set-up: species or system Balb/c mice. To be noted: Mus musculus, po, 4 h; 12 mg/kg body weight, indomethacin 80 mg/kg, Balb/c mice. As to the method:
Animal experiments were carried out using Balb/c mice (20-25 g). Animals were anesthetized with ketamine (12 mg/kg b.w.) prior to cervical dislocation. Control and experimental animals were fasted for 6 hr with free access to water.
Balb/c mice (20-25 g) bred in-house with free access to food and water was used for all experiments. Experiments were designed to minimize animal suffering and to use the minimum number associated with valid statistical evaluation. Animals were anesthetized with ketamine (12 mg/kg b.w.) followed by cervical dislocation. Animal experiments were carried out following the guidelines of animal ethics committee of the institute. Control and experimental animals were fasted for 6 h with free access to water.
Before ulcer induction, animals of both control and experimental groups were kept separately in standard controlled conditions. Acute gastric ulcers were induced by oral administration of indomethacin at a dose of 80 mg/kg b.w. The control group received the vehicle only (olive oil), whereas the experimental group received indomethacin for gastric ulceration. After 4 h, the animals were sacrificed and gastric lesions in the fundic stomach were scored and expressed as obtained by counting the number of red bands/dots as follows: 0=no pathology; 1=a small pinhead ulcer spot; and 2-5=a band like lesion of 2-5 mm length. Total score become ˜50 when ulcer is severe. The sum of the total scores as divided by the number of animals was expressed as the mean ulcer index. Formulations were administered orally 30 min prior to indomethacin treatment to check the gastroprotective effect. Among all the chemical compositions of 3-indolyl furanoids synthesized (table 1), compounds 1, 2, 5, 8, 9 and 12 were tested for prevention studies against gastric inflammation in vivo.
What is called inhibition in vivo is how much of the control response was suppressed. Low values mean little suppression, high ones strong suppression. In turn, `COc1ccc2[nH]c([S+]([O-])Cc3ncc(C)c(OC)c3C)nc2c1` (centres unmarked) [Omeprazole, reference compound] showed an inhibition in vivo at 12 mg/kg of 100%.

Still in this test, the particulars now being: Mus musculus; 50 mg/kg body weight oral in olive oil, indomethacin 80 mg/kg, scored after 4 h, Balb/c mice.
The compound `COc1cccc2c1c(-c1cc(-c3ccccc3)oc1-c1ccccc1)cn2C` [compound 12, 4-methoxy-1-methyl-3-(2,5-diphenylfuran-3-yl)-1H-indole] registered an inhibition in vivo at 50 mg/kg of 56%. On the same count and under the same terms, the result for `COc1ccc2[nH]cc(-c3cc(-c4ccccc4)oc3-c3ccccc3)c2c1OC` [compound 6, 4,5-dimethoxy-3-(2,5-diphenylfuran-3-yl)-1H-indole] reads 74%. Same read-out and setting: the result for `Oc1ccccc1-c1[nH]c2ccccc2c1-c1cc(-c2ccccc2)oc1-c1ccccc1` [compound 9, 3-(2,5-diphenylfuran-3-yl)-2-(2-hydroxyphenyl)-1H-indole] reads 72%; that for `Oc1ccc2[nH]cc(-c3cc(-c4ccccc4)oc3-c3ccccc3)c2c1` [compound 1, 3-(2,5-diphenylfuran-3-yl)-1H-indol-5-ol], 78%.

`COc1ccc2[nH]cc(-c3cc(-c4ccccc4)oc3-c3ccccc3)c2c1` [compound 2, 3-(2,5-diphenylfuran-3-yl)-5-methoxy-1H-indole]: the inhibition in vivo at 50 mg/kg worked out at 83%. Consider `c1ccc(-c2cc(-c3c(-c4ccccc4)[nH]c4ccccc34)c(-c3ccccc3)o2)cc1` [compound 8, 2-phenyl-3-(2,5-diphenylfuran-3-yl)-1H-indole], for which at 50 mg/kg the inhibition in vivo was 65%.

For another test, the target named is MMP-9 (Homo sapiens, UniProt P14780). Description: In vitro analysis of anti-ulcer efficacy (structure-activity discussion). The following applies: method not described.
Chain of MMP-9 (P14780 94-707, species assumed): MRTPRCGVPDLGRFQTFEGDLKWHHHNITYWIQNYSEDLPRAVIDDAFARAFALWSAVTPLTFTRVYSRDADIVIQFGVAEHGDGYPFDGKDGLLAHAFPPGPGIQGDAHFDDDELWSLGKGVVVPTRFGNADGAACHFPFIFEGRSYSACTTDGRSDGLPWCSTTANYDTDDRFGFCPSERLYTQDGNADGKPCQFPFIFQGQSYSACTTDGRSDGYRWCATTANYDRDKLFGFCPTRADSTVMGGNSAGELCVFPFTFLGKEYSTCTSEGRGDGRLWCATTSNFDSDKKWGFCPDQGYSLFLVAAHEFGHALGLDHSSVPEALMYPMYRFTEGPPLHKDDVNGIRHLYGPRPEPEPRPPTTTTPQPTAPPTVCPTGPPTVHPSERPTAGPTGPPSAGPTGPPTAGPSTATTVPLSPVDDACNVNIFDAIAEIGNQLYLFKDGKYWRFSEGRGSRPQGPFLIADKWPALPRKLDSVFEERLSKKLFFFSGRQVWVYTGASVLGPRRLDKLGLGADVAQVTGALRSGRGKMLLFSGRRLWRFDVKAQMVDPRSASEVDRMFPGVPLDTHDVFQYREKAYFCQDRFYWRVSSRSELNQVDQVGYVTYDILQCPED
Consider `Cc1c(-c2cc(-c3ccccc3)oc2-c2ccccc2)c2ccccc2n1C` [compound 11, 1,2-dimethyl-3-(2,5-diphenylfuran-3-yl)-1H-indole], for which the “anti-ulcer efficacy in vitro” value is reported as “not acceptable to have good anti-ulcer activity”.

As for `COc1cccc2c1c(-c1cc(-c3ccccc3)oc1-c1ccccc1)cn2C` [compound 12, 4-methoxy-1-methyl-3-(2,5-diphenylfuran-3-yl)-1H-indole], the “anti-ulcer efficacy in vitro” value is “not acceptable to have good anti-ulcer activity”. On the same count and under the same terms, the result for `CCCOc1ccc2[nH]cc(-c3cc(-c4ccccc4)oc3-c3ccccc3)c2c1` [compound 4, 3-(2,5-diphenylfuran-3-yl)-5-propoxy-1H-indole] reads “moderate anti-ulcer efficacy”. Take `C=CCOc1ccc2[nH]cc(-c3cc(-c4ccccc4)oc3-c3ccccc3)c2c1` [compound 3, 5-(allyloxy)-3-(2,5-diphenylfuran-3-yl)-1H-indole]: the “anti-ulcer efficacy in vitro” value is reported as “moderate anti-ulcer efficacy”.
